{"source": "patent US20060281724A1", "about": "“Methods for Treating Shock” (priority 2005, published 2006)", "key": {"[1]": {"tested_on": "rats subjected to 40% loss of total blood volume", "experiment": "Rat model of volume hemorrhagic trauma (blood loss model)", "assay_type": "in vivo", "procedure": "Twenty-four rats were subjected to 40% loss of total blood volume, consisting of catheterization and laparotomy (soft tissue injury) to mimic trauma and hemorrhage. One hour after onset of hemorrhage, the animals were resuscitated with crystalloid fluid and packed red blood cells (PRBCs). Twelve animals received one subcutaneous injection of AET in a methyl cellulose suspension at a concentration of 40 mg/kg body weight in 100 μl/kg body weight, one hour after initiation of hemorrhage, but prior to fluid resuscitation. Twelve animals received subcutaneous methyl cellulose control injection at 100 μl/kg body weight."}, "[2]": {"tested_on": "rats hemorrhaged down to a mean arterial pressure of about 35-40 mmHg", "experiment": "Rat model of blood pressure hemorrhagic trauma (pressure reduction model)", "assay_type": "in vivo", "conditions": "two days after induction of hemorrhage; AET 40 mg/kg subcutaneous in methyl cellulose suspension, one hour after initiation of hemorrhage, prior to fluid resuscitation; untreated/control group 75%", "procedure": "In a second model of hemorrhagic trauma, 15 rats were hemorrhaged as in Example 1 down to a mean arterial pressure of about 35-40 mmHg and resuscitated one hour from onset of hemorrhage with crystalloid and PRBCs. Seven […] subcutaneous injection of AET in a methyl cellulose suspension at a concentration of 40 mg/kg body weight in 100 μl/kg body weight, one hour after initiation of hemorrhage, but prior to fluid resuscitation. Eight animals received subcutaneous methyl cellulose control injection at 100 μl/kg body weight. Two days after induction of hemorrhage, mortality in the untreated group (n=8) was 75%."}}}
{"smiles": "C[C@]12CCC(O)CC1=CC(O)[C@@H]1[C@@H]2CC[C@]2(C)C(O)CC[C@@H]12", "note": "(stereo partly drawn) [AET, trihydroxy-androst-5ene]", "values": [{"measurement": "mortality", "setting": "[1]; three days after hemorrhagic conditions that reduced total blood volume by 40%, FIG. 1", "value": "zero"}, {"measurement": "survival rate", "setting": "[1]; three days after induction of hemorrhage, AET 40 mg/kg subcutaneous in methyl cellulose suspension, one hour after initiation of hemorrhage, prior to fluid resuscitation, untreated group mortality 25%, P<0.04", "value": 100, "unit": "%"}, {"measurement": "mortality rate", "setting": "[2]", "value": 43, "unit": "%"}]}
